Assay results published in patent US20250346943A1, “DEGRADER COMPOUNDS OF QSOX1 mRNA” (UNIVERSITY OF FLORIDA RESEARCH FOUNDATION, INCORPORATED, priority 2022, published 2025).

Experiments:
MDA-MB-231 cells [1] = assay: Proliferation assay; format: cell-based, human; conditions: 48 h treatment
Protocol: Proliferation Assay. MDA-MB-231 cells were seeded in 96-well plates (Corning) at ˜40% confluency and treated with compound or transfected with ASO as described in Cell Culture. Compound was replenished every 16 h by replacing all the growth medium with freshly prepared medium containing same concentration of compounds. After 48 h total treatment period, proliferation was measured by using CellTiter 96 AQueous One Solution Cell Proliferation Assay (Cat #G3582, Promega) per manufacturer's protocol.

SQSTM1 protein = SQSTM1 protein abundance by Western blotting in MDA-MB-231 cells; format: cell-based, human; conditions: F1-Amide 20 μM, F1-RIBOTAC 10 μM, 48 h
Protocol: (§1) Measuring Protein Abundance by Western Blotting. MDA-MB-231 cells were seeded in 6-well plates at ˜50% confluency and treated with vehicle (DMSO) or compound as described above but without EU treatment. After 16 h, the compound-containing growth medium was removed and replaced with fresh medium containing compound (re-dosing). After an additional 32 h incubation, total protein was harvested (48 h total treatment time). The cells were then washed twice with cold 1×DPBS, and total protein was harvested by using Mammalian Protein Extraction Reagent (M-PER, Thermo Scientific) per the manufacturer's protocol. Protein concentration was quantified by using BCA Protein Assay Kit (Pierce), and the proteins were separated by using 10% SDS-polyacrylamide gel (20 μg protein per lane). After gel electrophoresis in 1× Running Buffer (50 mM MOPS, 50 mM Tris-base, pH 7.5, 1 mM EDTA, and 0.1% (w/v) SDS) at 120 V for 1 h, the proteins were transferred to a PVDF membrane (0.45 μm, Cytiva) at 300 mA for 1 h in 1× Transfer Buffer (25 mM Bicine, 25 mM Tris-base, pH 7.5, 1:4 MeOH:H2O). The membrane was blocked with 5% (w/v) non-fat dry milk in TBST (1×TBS containing 0.1% (v/v) Tween-20) for 1 h at room temperature. […] Expression levels of proteins were quantified based on band intensity by using ImageJ. […]

MDA-MB-231 cells [2] = assay: Invasion assay; format: cell-based, human; conditions: 48 h
Protocol: Invasion Assay. MDA-MB-231 cells were seeded in […] and treated with compound or transfected by ASO for 48 h as described in Cell Culture. After treatment for 48 h, the medium was replaced with fresh medium that contains same concentration of compound but lacking FBS for 8 h (serum starvation). ThinCert (GBO) 24-well inserts with 8 μm pores were coated with 100 μL of 0.5 mg/mL Matrigel (Fisher Scientific: CB40234) per well, and then cells were added into the insert (50,000 cells per well). Fresh growth medium with FBS was added to a 24-well plate (600 μL each well), and the inserts containing cells were placed on the top, allowing medium to cover the bottom of the insert. After 16 h, all medium was removed, and cells were washed by 1×DPBS twice. Cells were then fixed with 3% (w/v) paraformaldehyde (PFA) in 1×DPBS at room temperature for 30 min, followed by staining with Crystal Violet (10 mg/mL; 4:1H2O:MeOH) at room temperature for 20 min. A cotton swab was used to gently remove non-invasive cells on sitting on top of the Matrigel. The inserts were then imaged under a regular optical microscope (3 views per well), and the number of invasive cells were counted manually.

[3] = tested on: mutant RNA (U-bulge mutated to U/A base pair); assay: Optical melting, mutant model RNA; format: binding
Protocol: (§2) Optical Melting Experiments. The thermal stability of WT and mutant model RNAs in the presence and absence of F1-Amide was measured by optical melting. The RNA ([…]) was prepared in 1× Melting Buffer (8 mM Na2HPO4, pH 7, 10 mM NaCl, and 1 mM EDTA) and heated to 95° C. followed by cooling on ice. F1-Amide was added to the final concentration of 2 mM; an equal volume of DMSO was added to the vehicle sample. The absorbance of the solution at 260 nm was measured by a Beckman Coulter DU800 spectrophotometer as a function of temperature, from 12° C. to 85° C. at a rate of 1° C./min. The background absorbance of buffer with DMSO or compound was subtracted before fitting the curve with MeltWin (v3.5)^7 to determine the melting temperature (Tm) and the Gibbs free energy (ΔG37° C.).

QSOX1-a protein = QSOX1-a protein abundance by Western blotting in MDA-MB-231 cells; format: cell-based, human; conditions: 20 μM
Protocol: as §1, with “temperature. The primary antibody for QSOX1 protein (Cat #10092-932, Proteintech) or SQSTM1 protein (Cat #ab 109012, Abcam) was incubated with 1:1000 dilutions at 4° C. for 16 h. The membrane was then washed by TBST four times (5 min each) and then incubated with the secondary antibody (Cat #7074S, Cell Signaling) with 1:5000 dilution at room temperature for 2 h. The membrane was washed with TBST four times (5 min each) and imaged by using a SuperSignal West Pico Chemiluminescent Substrate (Pierce) per manufacturer's protocol. The blot was stripped by washing the membrane in 1× Stripping Buffer (200 mM glycine, pH 2.2, 4 mM SDS, 1% (v/v) Tween 20) at room temperature for 30 min, followed by blocking again as described above.” for “temperature.”

[4] = tested on: WT model of the QSOX1-a hairpin structure; assay: Optical melting, WT model RNA; format: binding, human
Protocol: as §2

[5] = target: QSOX1 5′UTR hairpin (model of the QSOX1-a binding site); assay: In vitro binding by fluorescence polarization, Cy5-labeled WT RNA; parameters: species or system human
Protocol: In Vitro Binding by Measuring Changes in Fluorescence Polarization. Cy5-labeled RNA was folded by heating at 95° C. for 2 min in 1× Folding Buffer and cooled on ice. Serial dilutions of F1 (200 to 0.4 μM, 1:1 dilutions) were prepared in 1× Folding Buffer with 4% (w/v) bovine serum albumin (BSA) with constant DMSO concentration (2% v/v). The compound solutions (10 μL) were added to a well of non-binding 384-well plate (Corning). An equal volume of folded RNA was adding to each well with a final concentration of 50 nM. The samples were incubated at room temperature for 30 min, and then fluorescence polarization was measured with a Molecular Devices SpectraMax M5 plate reader with an excitation wavelength of 640 nm and an emission wavelength of 680 nm.

[6] = tested on: wild type (WT) QSOX1 5′ UTR RNA hairpin; assay: In vitro Chem-CLIP and competitive Chem-CLIP with Cy5-labeled WT RNA; format: binding, human; conditions: constant concentration of F1, increasing competitor
Protocol: In Vitro Chemical-Crosslinking and Isolation by Pull-down (Chem-CLIP) with Fluorescently Labeled RNA. Cy5-labeled RNA (100 μL, 2 μM) was folded by heating at 95° C. for 2 min in 1× Folding Buffer and cooled on ice. The RNA was then mixed with F1 at the indicated concentrations. The sample was irradiated with UV light (365 nm) for 15 min and then added to 100 μL of azide-disulfide agarose beads (Click Chemistry Tools, 1238-2) pre-washed with 200 μL of 25 mM HEPES, pH 7.0. A click reaction solution was prepared by mixing 30 μL of 250 mM sodium ascorbate, 30 μL of 10 mM CuSO4, and 30 μL of 50 mM THPTA, which was added to the sample. The sample was incubated while rotating at 37° C. for 2 h, briefly centrifuged, and then the supernatant was decanted. The beads were washed six times with 1× Washing Buffer (10 mM Tris-HCl, pH 7, 4 M NaCl, 1 mM EDTA, and 0.05% (v/v) Tween-20) following by incubation with 1× Releasing Buffer (50 mM TCEP and 100 mM K2CO3) at 37° C. for 30 min. An equivalent of iodoacetamide (200 mM) was added to the sample, which was incubated at 37° C. for an additional 30 min. The sample was briefly centrifuged and supernatant containing RNA was carefully transferred to a clean tube. Cy-5 fluorescence in the supernatant was measured with a Molecular Devices SpectraMax M5 plate reader with an excitation wavelength of 640 nm and an emission wavelength of 680 nm. For competitive Chem-CLIP, F1-RIBOTAC was added to the folded the RNA and incubated at room temperature for 15 min prior to the addition of F1. Pull-down was then completed as described above.

human transcriptome = assay: Chem-CLIP-Map-Seq transcriptome-wide target profiling in live MDA-MB-231 cells; format: cell-based; conditions: 20 μM, 16 h; for number of transcripts enriched (Chem-CLIP-seq): before excluding control probe overlap
Protocol: Additional studies were performed in live MDA-MB-231 cells to profile the cellular targets as well as the small molecule binding site within them, via Chem-CLIP-Map-Seq,^21 which had not previously been applied transcriptome-wide. After treatment (20 μM; 16 h) and cross-linking, total RNA was harvested and fragmented prior to pull-down (FIG. 2A). Random fragmentation was completed first to: 1) reduce sequence bias in library preparation, 2) reduce background signal in the RNA-seq analysis; and 3) allow for only the regions bound by the small molecules to be pulled down rather than the entire transcript, identifying both the target and the binding site within it. In parallel, a control diazirine probe that lacks an RNA-binding functionality (FIG. 2B) was used to identify targets that non-specifically react with the cross-linking moiety, where cross-linking is not driven by the RNA-binding elements.
Genrich uses a null model with a log-normal distribution to calculate p values by comparing sequencing runs of the same RNA sample before and after pull-down.
Chemical-Cross-linking and Isolation by Pull-down (Chem-CLIP) in Live Cells. MDA-MB-231 cells were seeded in 60 mm dishes and allowed to reach ˜80% confluency. The cells were then treated with 20 μM of compound in growth medium and incubated for 16 h. Cells were washed with 1×DPBS and irradiated with UV light for 10 min. Total RNA was harvested using a Zymo Quick-RNA Miniprep Kit per the manufacturer's protocol with DNase treatment. Total RNA was chemically fragmented by using an NEBNext Magnesium RNA Fragmentation Module (E6150S) per manufacturer's protocol to achieve final lengths between 100-150 nucleotides Pull-down of cross-linked RNAs was performed by adding 10 μg of total RNA to 100 μL of azide-disulfide agarose beads (Click Chemistry Tools, 1238-2) pre-washed with 25 mM HEPES, pH 7.0. The click reaction and pull-down were completed as described in “In Vitro Chemical-Crosslinking and Isolation by Pull-down (Chem-CLIP) with Fluorescently Labeled RNA”. The pulled down RNA was purified by RNA CleanXP beads (Beckman, A66514) per manufacturer's protocol.
RNA-seq Library Preparation and Data Analysis. The quality of the pulled down RNA was analyzed by using an Agilent 2100 Bioanalyzer RNA nanochip as well as to confirm fragment lengths. RNA concentration was quantified by Qubit 2.0 Fluorometer (Invitrogen). The input RNA (200 ng) was depleted of ribosomal RNA with NEBNext rRNA Depletion Module (E6310) according to manufacturer's recommendations. Library preparation was performed with NEBNext Ultra II Directional RNA kit (E7760) per manufacturer's protocols. Briefly, the rRNA-depleted samples were reverse transcribed with random hexamer primers to generate first strand cDNA, followed by second strand synthesis with dUTP instead of dTTP. The cDNA was end repaired and adenylated at their 3′ ends, followed by adaptor ligation. The strand information of the RNA was preserved by using USER enzyme (Uracil-specific excision reagent) to degrade the second strand. The cDNA was then PCR amplified with barcoded Illumina-compatible primers to generate the final libraries. These libraries were loaded into a NextSeq 500 v2.5 flow cell and sequenced with 2×40 bp paired-end chemistry. All fastq files were aligned to the human genome by STAR.^9 The output bam files were processed by Genrich (v0.6.1, available at https://github.com/jsh58/Genrich) for peak calling to identify regions of enrichment (p<0.001 and False Discovery Rate=1%). Fold enrichment was calculated by Deeptool^10 and visualized by IGV browser.^11 A minimum read count of 5 and a minimum fold enrichment of 1.5 were applied filter to filter out low-confidence peaks.

[7] = upon addition of small molecule

CCCNC(=O)CCC(=O)N(C)[C@H]1CC[C@@H](c2ccc(Cl)c(Cl)c2)c2ccccc21 [Compound F1-Amide]
effect on proliferation of MDA-MB-231 cells (MDA-MB-231 cells [1]): dose-dependently reduced proliferation | effect on SQSTM1 protein levels (SQSTM1 protein): Neither | effect on invasion (MDA-MB-231 cells [2]): no significant effect | effect on Tm or ΔG37° C. of mutant RNA [3]: No significant effect | reduction of QSOX1-a protein (QSOX1-a protein): ~15% | Tm of WT model RNA upon addition of compound ([4]; RNA alone 51.8): 53.7 °C | ΔG37° C. of WT model RNA upon addition of compound ([4]; RNA alone −2.7): -3.0 kcal/mol | decrease of DG°37 [4, 7]: 0.3 kcal/mol | increase of melting temperature (Tm) [4, 7]: 1.9 °C | Kd [5]: 26 ± 9 µM | competition of F1 cross-linking to the QSOX1-a target site (competitive Chem-CLIP) [6]: dose-dependently competed off

C#CCCC1(CCC(=O)N2CCN(c3nncc4sccc34)CC2)N=N1 [Compound F2]
number of enriched transcripts also enriched by the control probe (human transcriptome): 52 transcripts | share of enriched transcripts also enriched by the control probe (human transcriptome): 31% | unique transcripts identified for the small molecule (human transcriptome): 38 | number of transcripts enriched (Chem-CLIP-seq) (human transcriptome): 166 transcripts

C#CCCC1(CCC(=O)N(CCNC(=O)c2ccc(C)c(F)c2)Cc2ccncc2)N=N1 [Compound F3]
number of enriched transcripts also enriched by the control probe (human transcriptome): 53 transcripts | share of enriched transcripts also enriched by the control probe (human transcriptome): 32% | number of transcripts enriched (Chem-CLIP-seq) (human transcriptome): 163 transcripts

C#CCCC1(CCC(=O)Nc2nnc(SCc3ccc(F)c4cccnc34)n2C)N=N1 [Compound F5]
number of enriched transcripts also enriched by the control probe (human transcriptome): 57 transcripts | number of transcripts enriched after eliminating transcripts also bound by the control diazirine (human transcriptome): 35 | share of enriched transcripts also enriched by the control probe (human transcriptome): 62% | unique transcripts identified for the small molecule (human transcriptome): 3 | number of transcripts enriched (Chem-CLIP-seq) (human transcriptome): 92 transcripts

C#CCCC1(CCC(=O)Nc2nc(-c3ccc(-n4cccn4)cc3)cs2)N=N1 [Compound F6]
number of enriched transcripts also enriched by the control probe (human transcriptome): 55 transcripts | share of enriched transcripts also enriched by the control probe (human transcriptome): 43% | number of transcripts enriched (Chem-CLIP-seq) (human transcriptome): 127 transcripts
